Test results taken from article PMC8149581 (Chemistry of Heterocyclic Compounds, 2021).
Converted amounts (≈) assume the structure as drawn.

tested on: influenza A/Puerto Rico/8/34 (H1N1) virus; assay type: cell-based

| SMILES | IC50 (antiviral activity) |
| --- | --- |
| CC(N)C12CC3CC(CC(C3)C1)C2 (stereo not drawn) [Rimantadine, reference compound] | 12 ± 2 µg/mL (≈ 66.9 µM) |
| Nc1c(Br)cc([N+](=O)[O-])cc1-c1nnn(C23CC4CC(CC(C4)C2)C3)n1 [Compound 3h, 2-[2-(Adamantan-1-yl)-2 H -tetrazol-5-yl]-6-bromo-4-nitroaniline] | 15 ± 3 µg/mL (≈ 35.8 µM) |
| Nc1cc(-c2nnn(C34CC5CC(CC(C5)C3)C4)n2)ccc1O [Compound 3i, 4-[2-(Adamantan-1-yl)-2 H -tetrazol-5-yl]-2-aminophenol] | 15 ± 2 µg/mL (≈ 48.2 µM) |
